Measurements published in paper PMC12389022, “Drug Metabolism and Pharmacokinetic Evaluation of a Novel RNase H2 Inhibitor for the Treatment of Triple-Negative Breast Cancer” (Pharmaceutics, 2025).
Values after ≈ are worked out from the molar mass of the structure shown. Where two headings read alike, the source gives them in different places.

Experiments:
[1] = R14 incubation in rat whole blood; format: in vitro ADME; conditions: R14 10 µg/mL, room temperature, 3 days
Description: Previously, we observed the complete disappearance of R14 from mouse whole blood samples after being stored for 10 days in a −70 °C freezer, raising concerns about its stability under typical storage conditions. To further investigate the degradation and potential metabolic transformation of R14 in whole blood, we spiked rat whole blood with R14 (10 µg/mL) and left it at room temperature for 3 days. Room temperature incubation allows for ongoing enzymatic and non-enzymatic processes, providing insight into R14’s metabolic stability and degradation pathways under physiologically relevant but uncontrolled conditions. After incubation, a 4X volume of methanol containing 0.5% formic acid was added to the samples, followed by vortexing for 3 min and centrifugation to obtain supernatant prior to metabolite identification using the UHPLC coupled with quadrupole time-of-flight tandem mass spectrometry (UHPLC-QTOF MS/MS).
Samples from in vivo pharmacokinetic studies, in vitro blood stability studies, and in vitro hepatic microsome studies were pretreated at the time of collection. Before analysis, the samples were thawed at room temperature, vortexed for 2 min, and centrifuged at 14,000 rpm for 20 min. An 80 µL aliquot of the supernatant was transferred to a sample vial for UHPLC-QTOF MS/MS analysis. […]

[2] = Metabolite identification and relative exposure in rat plasma and urine (UHPLC-QTOF MS/MS); format: in vivo, Sprague Dawley rats; conditions: for Source P (detected in plasma): rat plasma after single oral dose of 50 mg/kg R14; for Source U (detected in urine): rat urine 0-24 h after single oral dose of 50 mg/kg R14; for Cumulative excretion in 24 h urine as fraction of total amount of R14 and its metabolites: rat urine 0-24 h, peak area x urine volume
Description: (§1) For the oral pharmacokinetics of R14, rats were fasted overnight and 4 h post-administration of 50 mg/kg oral dose of R14, with free access to water in metabolic cages. Serial blood samples (0.15 mL each) were collected from the cannulated jugular vein into heparin-coating tubes before dosing and at 5 min, 15 min, 30 min, 45 min, 1 h, 2 h, 3 h, 4 h, 6 h, 8 h, 10 h, and 24 h time points post dose. Plasma samples were separated immediately by centrifugation of the blood samples at 13,000 rpm for 3 min. For R14 quantification, 10 μL plasma aliquots were mixed with 30 μL of a stabilizing derivatization solution (0.1 M citric acid and 0.1 M sodium sulfite) and stored at −80 °C for analysis by UHPLC-MS/MS. For metabolite identification, 20 μL plasma aliquots were mixed with 80 μL acetonitrile containing 0.5% formic acid and stored at −80 °C for UHPLC-QTOF MS/MS analysis. Urine samples were collected over 0–24 h and stored at −80 °C.
Twenty microliters of urine were mixed with 80 µL of methanol containing 0.5% formic acid, vortexed for 2 min, and centrifuged for 20 min. An 80 µL Aliquot of the supernatant was transferred to a sample vial for metabolite identification using UHPLC-QTOF MS/MS.
Samples from in vivo pharmacokinetic studies, in vitro blood stability studies, and in vitro hepatic microsome studies were pretreated at the time of collection. Before analysis, the samples were thawed at room temperature, vortexed for 2 min, and centrifuged at 14,000 rpm for 20 min. An 80 µL aliquot of the supernatant was transferred to a sample vial for UHPLC-QTOF MS/MS analysis.
Metabolite identification was performed on a UHPLC-X500B QTOF MS/MS (SCIEX, Framingham, MA, USA) equipped with a Synergi Fusion-RP column (4 µm, 150 × 2 mm, 80 Å, Phenomenex, Torrance, CA, USA). The mobile phases were water with 0.1% formic acid (A) and methanol with 0.1% formic acid (B), delivered at a flow rate of 0.4 mL/min. The autosampler and oven temperatures were set at 10 °C and 30 °C, respectively. The running time was 30 min. The gradient elution was as follows: 10% B for 0.5 min; increased to 70% over 20 min; then to 95% over 2 min; held at 95% for 5 min; returned to 10% in 0.5 min; and equilibrated for 2 min.
The QTOF MS/MS was operated In positive ion mode. Data were acquired in Information-dependent-acquisition (IDA) mode, starting with a TOF MS survey scan to detect precursor ions, followed by MS/MS scans of the top 10 most intense ions (intensity > 200 counts/s). TOF MS was set to scan m/z 200–700 with a 0.1 s accumulation time, while TOF MS/MS scanned m/z 50–700 with a 0.04 s accumulation time. The source temperature and spray voltage were set at 500 °C, and 5000 v, respectively. Curtain gas and collision gas (CAD) were set at 30 and 9 psi, while nebulizer gas (gas 1) and heater gas (gas 2) were set at 55 and 60 psi, respectively. The declustering potential (DP) was 50 V. Collision energy (CE) were 10 v for TOF MS and 35 v (±15 v spread) for TOF MS/MS. Data were acquired using SCIEX OS software 1.6.1, and processed on SCIEX OS software 3.1.0.
To elucidate the metabolic pathways and identify unknown metabolites of R14, we employed a multi-step strategy. First, MS/MS fragmentation analysis was performed to characterize the fragmentation pattern of R14 and identify its key fragment ions, which served as references for metabolite identification. Next, based on the chemical structure of R14, potential biotransformation pathways mediated by hepatic cytochrome P450 enzymes were predicted. These predicted metabolites were then screened in urine samples collected during in vivo pharmacokinetic studies to identify excreted metabolites. Metabolites detected in urine were subsequently cross-verified in plasma samples from the same in vivo studies. If verification failed or additional metabolites were suspected, the analysis reverted to the initial fragmentation step to identify downstream or daughter metabolites. […]

[3] = R14 permeability in the Caco-2 cell culture model; format: in vitro ADME; conditions: human, Caco-2, R14 10 µM
Description: (§2) The permeability of R14 was assessed using the Caco-2 cell monolayer model, following the protocol by Liu and Hu (Liu 2002). Caco-2 cells (2.5 × 10^5 cells per insert; 4.2 cm^2 area, 3 μm pore size) were seeded and cultured at 37 °C with 90% humidity and 5% CO2 for 19–22 days. Monolayer integrity was evaluated using transepithelial electrical resistance (TEER) measurements with a Millicell ERS-2 system. Only monolayers with TEER values between 500 and 750 Ω·cm^2 were used.
(§3) Hank’s Balanced Salt Solution (HBSS), supplemented with NaHCO3 (0.35 g/L), HEPES (5.96 g/L), and glucose (3.5 g/L), adjusted to the desired pH, was used as the transport medium. Cells from passages 41–49 were used.
(§4) After confirming TEER, R14 working solution (10 µM) was added to either the apical or basolateral side of the insert, designating that side as the donor compartment, while the opposite side served as the receiver compartment. Samples (200 µL) were collected from both the apical (A) and basolateral (B) sides at 0, 0.5, 1, 2, and 4 h. The removed volume was immediately replaced with either fresh R14 working solution (on the donor side) or fresh buffer (on the receiver side) to maintain consistent volume and drug concentration throughout the experiment.
(§5) For analysis, 100 µL of acetonitrile containing 0.6% formic acid and internal standard was added to each collected sample. After vortexing and centrifugation, the supernatant was analyzed using UHPLC-MS/MS for R14 quantification.
(§6) The apparent permeability coefficient (P, cm/s) was calculated using the following equation: P=dQ/dt/A·C0 where dQ/dt is the permeability rate of drug appearance in the receiver compartment (µmol/s), A is the surface area of the cell monolayer (cm^2), and C0 is the initial concentration in the donor compartment (µmol/mL).
(§7) Permeability was assessed in both directions (apical to basolateral and basolateral to apical), and the efflux ratio was calculated as: Effluxratio=Pb−a/Pa−b where Pa−b is the permeability coefficient from apical to basolateral, and Pb−a is the permeability coefficient from basolateral to apical.

Caco-2 cell monolayer = experiment: R14 permeability in the Caco-2 cell culture model; format: in vitro ADME; conditions: R14 10 µM
Description: as §2, §3, §4, §5, §6, §7

MDA-MB-231 tumor = system: MDA-MB-231 tumor; set-up: method as in PMID 42013846; conditions: oral R14 vs vehicle controls; cited from earlier work
[4] = cited from earlier work
[5] = Pharmacokinetics of R14 in rats after i.v. and oral dose; format: in vivo, Sprague Dawley rats; conditions: for AUC(0-t): read-out: AUC0→10h
Description: This study was carried out in accordance with the recommendation of the Guidelines for the Care and Use of Laboratory Animals (2011) and was in compliance with the ARRIVE guidelines. All animal experiments were conducted with prior approval from the Texas Southern University Institutional Animal Care and Use Committee (IACUC). Male adult SD rats (250–350 g) were purchased from Envigo RMS (Indianapolis, IN, USA) and were housed in standard rodent cages (3–4 rats per cage) with a 12 h light/dark cycle at 22–24 °C and had free access to standard laboratory rodent chow (7012 Teklad mouse/rat diet from Envego, Inc., Indianapolis, IN, USA) and water. Rats were acclimated to the animal care facility for at least 7 days before the start of each experiment. Only male rats were used in the present study to minimize pharmacokinetic variations due to sex differences.
To facilitate the timed withdrawal of multiple blood samples from each animal, the right jugular vein of each animal was cannulated one day prior to drug administration. The cannulas were flushed daily with 0.5 mL of sterile heparinized saline (100 units/mL). Under anesthesia using a cocktail of ketamine/acetopromazine/xylazine (50:3.3:3.3 mg/kg ip), silicone elastomer tubing (0.02 × 0.037 in) was inserted into the jugular vein, secured with a silk suture, and exteriorized in the dorsal intrascapular area. The surgical incision was prophylactically treated with nitrofurazone wound powder and closed with surgical staples.
as §1
For the intravenous (i.v.) pharmacokinetics of R14, another group of jugular vein cannulated rats received an i.v. administered 5 mg/kg R14 dose. Serial blood samples (0.15 mL each) were collected from the cannulated jugular vein into heparin-coating tubes before dosing and at 2 min, 5 min, 10 min, 30 min, 45 min, 1 h, 2 h, 4 h, 6 h, 8 h, 10 h, and 24 h time points post-dose. Plasma was processed similarly, with aliquots prepared for both R14 quantification and metabolite analysis, and urine collected over 24 h and stored at −80 °C.
The urine sample (10 μL each) was pre-mixed with 30 µL of derivatization agent (also acting as stabilizing agent). Pre-mixed plasma samples (with the derivation agent before storage) or the pre-mixed urine samples were added to 360 µL of acetonitrile (containing 2.5 ng/mL warfarin), vortexed for 2 min, and then centrifuged for 20 min. The supernatant (80 μL) was mixed with 160 µL of acetonitrile containing 0.5% formic acid, and finally, 100 μL aliquot of the mixture was transferred to a sample vial for UHPLC-MS/MS analysis.
R14 quantification via monitoring R14 bisulfite was conducted using a previously published method on a 6500+ Triple Quad UHPLC-MS/MS System (SCIEX, Framingham, MA, USA) coupled with a Synergi Fusion-RP column (50 × 2 mm, 4 µm, 80 Å, Phenomenex Inc., Torrance, CA, USA). […]

[6] = set-up: method as in PMID 36924633; conditions: mouse whole blood stored at −70 °C; cited from earlier work
[7] = male, Sprague Dawley, iv, i.v. 5 mg/kg, rat plasma, n = 3, mean ± SD
[8] = male, Sprague Dawley, rat, plasma, iv, i.v. 5 mg/kg, rats, n = 3, mean ± SD
[9] = male, Sprague Dawley, rat, plasma, oral 50 mg/kg, rats, n = 3, mean ± SD
[10] = male, Sprague Dawley, oral 50 mg/kg, rat plasma, n = 3, mean ± SD

Compound: Cc1ccccc1N1Sc2cc(F)ccc2C1O (stereo not drawn) [Metabolite M1]
- Source B (detected in whole blood incubation) [1]: sole major metabolic product and √
- Source P (detected in plasma) ([2]; 50 mg/kg): low concentrations and relatively low levels and √
- Source U (detected in urine) [2]: undetectable

Compound: Cc1ccccc1N1Sc2cc(F)ccc2C1OC1OC(C(=O)O)C(O)C(O)C1O (stereo not drawn) [Metabolite M4]
- Source P (detected in plasma) [2]: √
- Apparent AUC in plasma relative to total AUC of R14 and all identified metabolites ([2]; rat plasma, peak area as relative concentration): 22.3%
- Cumulative excretion in 24 h urine as fraction of total amount of R14 and its metabolites [2]: 48.4%
- Source U (detected in urine) [2]: √

Compound: Cc1ccccc1-n1sc2cc(F)ccc2c1=O [Metabolite R14, 6-Fluoro-2-(2-methylphenyl)-1,2-benzothiazol-3(2H)-one]
- Papp A→B at 4 h, 10 µM ([3]; n = 3, read-out: Pa−b (apical-to-basolateral permeability)): 6.39 ± 0.6 ×10⁻⁶ cm/s
- Papp B→A at 4 h, 10 µM ([3]; n = 3, read-out: Pb−a (basolateral-to-apical permeability)): 6.41 ± 1.15 ×10⁻⁶ cm/s
- efflux ratio at 4 h, 10 µM ([3]; read-out: Efflux ratio (Pb−a/Pa−b)): 1.12
- Permeability assessment (Caco-2 cell monolayer): moderate permeability
- Survival (MDA-MB-231 tumor): improved survival
- Tumor size (MDA-MB-231 tumor): significantly reduced
- Solubility in DMSO ([4]; DMSO): 25 mg/mL (≈ 96.4 mM)
- Water solubility ([4]; water): poorly water soluble
- AUC(0-inf) [5, 7]: 1810 ± 444 ng·h/mL
- AUC(0-t) [5, 7]: 1580 ± 477 ng·h/mL
- MRT [5, 8]: 1.63 ± 0.39 h
- half-life [5, 8]: 5.39 ± 0.94 h
- clearance ([5]; male, Sprague Dawley, rat, plasma, iv, i.v. 5 mg/kg, rats, n = 3, mean ± SD, read-out: CL (systemic clearance) (converted)): 43.8 mL/min/kg
- Vd ([5]; male, Sprague Dawley, rat, plasma, iv, i.v. 5 mg/kg, rats, n = 3, mean ± SD, read-out: Vd (volume of distribution)): 20.7 ± 6.11 L/kg
- bioavailability ([5]; male, Sprague Dawley, rat, plasma, oral, 50 mg/kg, oral 50 mg/kg vs i.v. 5 mg/kg, rats, read-out: F% (absolute oral bioavailability)): 13.4%
- MRT [5, 9]: 2.82 ± 0.5 h
- half-life [5, 9]: 2.99 ± 1.41 h
- CL/F ([5]; male, Sprague Dawley, rat, plasma, oral 50 mg/kg, rats, n = 3, mean ± SD, read-out: CL/F (apparent clearance) (converted)): 367 mL/min/kg
- Vd/F ([5]; male, Sprague Dawley, rat, plasma, oral 50 mg/kg, rats, n = 3, mean ± SD, read-out: Vd/F (apparent volume of distribution)): 93.3 ± 38.1 L/kg
- Tmax ([5]; male, Sprague Dawley, oral 50 mg/kg, rat plasma, n = 3): 0.5 h
- AUC(0-inf) [5, 10]: 2430 ± 344 ng·h/mL
- Cmax [5, 10]: 1150 ± 201 ng/mL
- AUC(0-t) [5, 10]: 2080 ± 255 ng·h/mL
- F% (absolute oral bioavailability) ([5]; oral 50 mg/kg vs i.v. 5 mg/kg, rats): 13.38%
- Time to complete disappearance from whole blood samples [6]: ≤ 10 days
- Cumulative excretion in 24 h urine as fraction of total amount of R14 and its metabolites [2]: Less than 1%
